Results taken from US20220323437A1, “METHODS FOR TREATING PULMONARY ARTERIAL HYPERTENSION” (ACTELION PHARMACEUTICALS LTD, priority 2019, published 2022).
“And” between values parts separate entries of the source, which are not always exact repeats. Equal entries are not always repeated.

Assay: Adverse events during switch from oral to i.v. selexipag and back in subjects with stable PAH (Phase 3 study)
Format: in vivo, human
Description: This was a prospective, multicenter, open-label, single-sequence, cross-over, Phase 3 study. Based on the dose of selexipag received at study entry, subjects were allocated to one of the following groups, selexipag 200-1000 μg b.i.d. or selexipag 1200-1600 μg b.i.d. See, FIG. 1. The study comprised the following periods:
(ii) Treatment and observation period: The treatment and observation period included the following consecutive periods: • Period 1 included oral selexipag pre-treatment period for 1 day, in-hospital. This period started with intake of the morning dose of oral selexipag on Day 1 at Visit 2 and ended the following day, before initiation of the first infusion of i.v. selexipag. • Period 2 included i.v. selexipag treatment period for 36 hours [3 infusions], in-hospital. This period started in the morning of Day 2 at Visit 2 with the start of the first infusion of i.v. selexipag and ended in the evening of Day 3 at Visit 2 before the evening administration of oral selexipag. Administration of oral selexipag was interrupted during the i.v. selexipag treatment period. • Period 3 included oral selexipag post-treatment period for 7 to 11 day. This period started in the evening of Day 3 at Visit 2 with the administration of oral selexipag and ended 7-11 days later, at Visit 3.
The endpoints analyzed for Period 1, Period 2, and Period 3 and follow-up period combined included discontinuations due to prostacyclin-associated AEs, adverse events (AEs) and serious adverse events (SAEs), prostacyclin-associated AEs, AEs related to injection site reactions, and PAH-related AEs.
The endpoints analyzed for (i) Period 1, Period 2, and Period 3 and follow-up period combined (ii) Period 1 and Period 2 combined, and (iii) Period 2 and Period 3 combined included discontinuations due to prostacyclin-associated AEs, discontinuations due to any AEs, AEs and SAEs, prostacyclin-associated AEs, PAH-related AEs, change from baseline in vital signs (systolic blood pressure [SBP], diastolic blood pressure [DBP], and pulse rate) and body weight, ECG abnormalities, marked laboratory abnormalities, and change from baseline in WHO FC.
The statistical analysis was mainly descriptive, without formal hypothesis testing. Exact Pearson-Clopper CIs for the incidence of AEs were computed.

[1] = Overall (Periods 1, 2, and 3, and safety-follow-up combined), 20 subjects
[2] = Overall (Periods 1, 2, and 3 with safety-follow-up combined)
[3] = Period 1 (oral selexipag), total, N = 20
[4] = Period 1 (oral selexipag, 24 h), high dose cohort (1200-1600 μg), N = 12
[5] = Period 1 (oral selexipag, 24 h), high dose cohort (1200-1600 μg), N = 12, listed as Uptravi
[6] = Period 1 (oral selexipag, 24 h), low dose cohort (200-1000 μg), N = 8
[7] = Period 1 (oral selexipag, 24 h), total, N = 20
[8] = Period 2 (i.v. selexipag, 36 h), high dose cohort (1200-1600 μg), N = 12
[9] = Period 2 (i.v. selexipag, 36 h), low dose cohort (200-1000 μg), N = 8
[10] = Period 2 (i.v. selexipag, 36 h), total, N = 20
[11] = Period 2 (intravenous selexipag treatment), high dose cohort (1200-1600 μg), N = 12

In the case of `CC(C)N(CCCCOCC(=O)NS(C)(=O)=O)c1cnc(-c2ccccc2)c(-c2ccccc2)n1` [selexipag, 2-{4-[(5,6-diphenylpyrazin-2-yl)(propan-2-yl)amino]butoxy}-N-(methanesulfonyl)acetamide], the “most frequently reported AE preferred term: headache” value [1] is reported as 4 subjects, the “subjects with at least 1 AE during the study” value [1] is reported as 15 subjects and the “subjects with mild intensity AEs” value [2] is reported as 8 subjects. The “subjects with moderate intensity AEs” value [2] was 5 subjects, the “subjects with severe intensity AEs” value [2] was 1 subject and the “Subjects with at least one prostacyclin-associated AE” value (Period 1 (oral selexipag), high dose cohort (1200-1600 μg), N = 12) was 0 n (%). The “Subjects with at least one prostacyclin-associated AE” value (Period 1 (oral selexipag), low dose cohort (200-1000 μg), N = 8) was 0 n (%), the Deaths [3] was 0 n (%) and the “Discontinuations due to prostacyclin-associated AEs” value [3] was 0 n (%). The “Number of subjects with at least one Prostacyclin-associated AEs” value [3] was 0 n (%), the “Number of subjects with at least one Serious adverse events (SAEs)” value [3] was 0 n (%) and the “SAE incidence: Blindness unilateral” value [3] was 0 n (%). For the same compound, the “SAE incidence: Rhegmatogenous retinal detachment” value [3] was 0 n (%), the “SAE incidence: Right ventricular failure” value [3] was 0 n (%) and the “AE incidence: Sleep disorder” value [4] was 1 n (%). For the same compound, the “AE incidence: Swelling face” value [4] was 0 n (%), the “Subjects with at least one AE” value [4] was 1 n (%) and the “AE incidence: Sleep disorder” value [5] was 1 (8.3) n (%). For the same compound, the “Subjects with at least one AE” value [5] was 1 (8.3) n (%), the “AE incidence: Sleep disorder” value [6] was 0 n (%) and the “AE incidence: Swelling face” value [6] was 1 (12.5) n (%). The “Subjects with at least one AE” value [6] was 1 (12.5) n (%), the “AE incidence: Sleep disorder” value [7] was 1 n (%) and the “AE incidence: Swelling face” value [7] was 1 n (%). The “Subjects with at least one AE” value [7] was 2 n (%) and 2 (10.0) n (%), the “Subjects with at least one AE” value (Period 1 (oral selexipag, 24 h), total, N = 20, listed as Uptravi) was 2 n (%) and the “prematurely discontinued study treatment” value (Period 2 (3 i.v. infusions of selexipag)) was “No subject”. For the same compound, the “subjects with clinically significant injection site reactions as determined by the investigator” value (Period 2 (i.v. selexipag)) was “two”, the “AE incidence: Diarrhoea” value [8] was 1 n (%) and the “AE incidence: Dysgeusia” value [8] was 0 n (%). The “AE incidence: Epistaxis” value [8] was 0 n (%), the “AE incidence: Flatulence” value [8] was 1 n (%) and the “AE incidence: Flushing” value [8] was 1 n (%). The “AE incidence: Headache” value [8] was 3 n (%), the “AE incidence: Incorrect drug administration rate” value [8] was 0 n (%) and the “AE incidence: Infusion site erythema” value [8] was 2 n (%). The “AE incidence: Infusion site swelling” value [8] was 1 n (%), the “AE incidence: Lymphadenopathy” value [8] was 0 n (%) and the “AE incidence: Myalgia” value [8] was 1 n (%). For the same compound, the “AE incidence: Nasal congestion” value [8] was 1 n (%), the “AE incidence: Nausea” value [8] was 1 n (%) and the “AE incidence: Pain in jaw” value [8] was 1 n (%). The “AE incidence: Tachycardia” value [8] was 0 n (%), the “AE incidence: Tension headache” value [8] was 1 n (%) and the “AE incidence: Vascular access complication” value [8] was 1 n (%). The “AE incidence: Vomiting” value [8] was 1 n (%), the “Subjects with at least one AE” value [8] was 6 n (%) and the “AE incidence: Diarrhoea” value [9] was 0 n (%). For the same compound, the “AE incidence: Dysgeusia” value [9] was 1 (12.5) n (%), the “AE incidence: Epistaxis” value [9] was 1 (12.5) n (%) and the “AE incidence: Flatulence” value [9] was 0 n (%). The “AE incidence: Flushing” value [9] was 0 n (%), the “AE incidence: Headache” value [9] was 1 (12.5) n (%) and the “AE incidence: Incorrect drug administration rate” value [9] was 1 (12.5) n (%). The “AE incidence: Infusion site erythema” value [9] was 0 n (%), the “AE incidence: Infusion site swelling” value [9] was 0 n (%) and the “AE incidence: Lymphadenopathy” value [9] was 1 (12.5) n (%). The “AE incidence: Myalgia” value [9] was 0 n (%), the “AE incidence: Nasal congestion” value [9] was 0 n (%) and the “AE incidence: Nausea” value [9] was 0 n (%). For the same compound, the “AE incidence: Pain in jaw” value [9] was 0 n (%), the “AE incidence: Tachycardia” value [9] was 1 (12.5) n (%) and the “AE incidence: Tension headache” value [9] was 0 n (%). The “AE incidence: Vascular access complication” value [9] was 0 n (%), the “AE incidence: Vomiting” value [9] was 0 n (%) and the “Subjects with at least one AE” value [9] was 4 (50.0) n (%). For the same compound, the “AE incidence: Diarrhoea” value [10] was 1 n (%), the “AE incidence: Dysgeusia” value [10] was 1 n (%) and the “AE incidence: Epistaxis” value [10] was 1 n (%). The “AE incidence: Flatulence” value [10] was 1 n (%), the “AE incidence: Flushing” value [10] was 1 n (%) and the “AE incidence: Headache” value [10] was 4 n (%). For the same compound, the “AE incidence: Incorrect drug administration rate” value [10] was 1 n (%), the “AE incidence: Infusion site erythema” value [10] was 2 n (%) and the “AE incidence: Infusion site swelling” value [10] was 1 n (%). For the same compound, the “AE incidence: Lymphadenopathy” value [10] was 1 n (%), the “AE incidence: Myalgia” value [10] was 1 n (%) and the “AE incidence: Nasal congestion” value [10] was 1 n (%). For the same compound, the “AE incidence: Nausea” value [10] was 1 n (%), the “AE incidence: Pain in jaw” value [10] was 1 n (%) and the “AE incidence: Tachycardia” value [10] was 1 n (%). For the same compound, the “AE incidence: Tension headache” value [10] was 1 n (%), the “AE incidence: Vascular access complication” value [10] was 1 n (%) and the “AE incidence: Vomiting” value [10] was 1 n (%). For the same compound, the “Subjects with at least one AE” value [10] was 10 n (%), the “Prostacyclin-associated AE incidence: Diarrhoea” value [11] was 1 n (%) and the “Prostacyclin-associated AE incidence: Flushing” value [11] was 1 n (%). The “Prostacyclin-associated AE incidence: Headache” value [11] was 3 n (%), the “Prostacyclin-associated AE incidence: Myalgia” value [11] was 1 n (%) and the “Prostacyclin-associated AE incidence: Nausea” value [11] was 1 n (%). The “Prostacyclin-associated AE incidence: Pain in jaw” value [11] was 1 n (%) and the “Prostacyclin-associated AE incidence: Tension headache” value [11] was 1 n (%).
